Test results as given in ChEMBL document CHEMBL6182876, “Design, synthesis and preliminary structure-activity relationship of 2-iminothiazolidine-4-one derivatives against Schistosoma japonicum in vitro and in vivo” (Eur J Med Chem, 2025).
Calls of active or inactive are those of the source. No cut-off for these calls is given here.

Key:
[1] = tested on: Schistosoma japonicum; experiment: Anti-schistosomal activity against juvenile Schistosoma japonicum infected in ICR mouse assessed as number of worms at 25 mg/kg, ip administered for 7 days; type: functional; conditions: time 7 day
[2] = Toxicity in ICR mouse infected with Schistosoma japonicum assessed as serum BUN level at 25 mg/kg, ip administered for 7 days; type: organism-based; conditions: in vivo, 168 h, time 7 day
[3] = tested on: Schistosoma japonicum; experiment: Anti-schistosomal activity against adult Schistosoma japonicum assessed as worm mortality at 100 uM measured at 24 hrs relative to control; type: functional
[4] = tested on: Schistosoma japonicum; experiment: Anti-schistosomal activity against adult Schistosoma japonicum assessed as worm mortality at 100 uM measured at 8 hrs relative to control; type: functional
[5] = tested on: Schistosoma japonicum; experiment: Anti-schistosomal activity against adult Schistosoma japonicum assessed as worm mortality at 100 uM measured at 72 hrs relative to control; type: functional
[6] = tested on: Schistosoma japonicum; experiment: Anti-schistosomal activity against adult Schistosoma japonicum assessed as worm mortality at 100 uM measured at 48 hrs relative to control; type: functional
[7] = tested on: Schistosoma japonicum; experiment: Anti-schistosomal activity against adult Schistosoma japonicum measured at 72 hrs; type: functional, organism-based
[8] = tested on: Schistosoma japonicum; experiment: Anti-schistosomal activity against adult Schistosoma japonicum infected in ICR mouse assessed as number of worms at 25 mg/kg, ip administered for 7 days; type: functional; conditions: time 7 day
[9] = tested on: Schistosoma japonicum; experiment: Anti-schistosomal activity against adult Schistosoma japonicum infected in ICR mouse assessed as reduction in worm burden at 25 mg/kg, ip administered for 7 days; type: functional; parameters: scale not given: the % may be the effect or the level left; conditions: time 7 day
[10] = tested on: Schistosoma japonicum; experiment: Anti-schistosomal activity against adult Schistosoma japonicum assessed as worm mortality at 100 uM measured at 4 hrs relative to control; type: functional
[11] = tested on: Schistosoma japonicum; experiment: Anti-schistosomal activity against adult Schistosoma japonicum assessed as worm mortality at 100 uM measured at 12 hrs relative to control; type: functional
[12] = tested on: Schistosoma japonicum; experiment: Anti-schistosomal activity against juvenile Schistosoma japonicum infected in ICR mouse assessed as reduction in worm burden at 25 mg/kg, ip administered for 7 days; type: functional; parameters: scale not given: the % may be the effect or the level left; conditions: time 7 day
[13] = tested on: Schistosoma japonicum; experiment: Anti-schistosomal activity against juvenile Schistosoma japonicum infected in ICR mouse assessed as somatic degeneration at 25 mg/kg, ip administered for 7 days; type: functional, organism-based; conditions: time 7.0 day
[14] = Acute toxicity in ICR mouse assessed as BUN level at 1144 mg/kg, po administered for 7 days; type: organism-based; conditions: in vivo, 168 h, time 7 day
[15] = tested on: Schistosoma japonicum; experiment: Anti-schistosomal activity against male adult Schistosoma japonicum assessed as appearance of degradation of subtegumental matrix at 25 uM measured for 72 hrs by SEM analysis; type: functional, organism-based
[16] = tested on: Schistosoma japonicum; experiment: Anti-schistosomal activity against male adult Schistosoma japonicum assessed as appearance of intact tegument surface at 25 uM measured for 72 hrs by SEM analysis; type: functional, organism-based
[17] = tested on: Schistosoma japonicum; experiment: Anti-schistosomal activity against male adult Schistosoma japonicum assessed as loss of tegumental architecture at 25 uM measured after 72 hrs by SEM analysis; type: functional, organism-based
[18] = tested on: Schistosoma japonicum; experiment: Anti-schistosomal activity against male adult Schistosoma japonicum assessed as appearance of sensory papillae at 25 uM measured for 72 hrs by SEM analysis; type: functional, organism-based
[19] = Acute toxicity in ICR mouse assessed as AST level at 1144 mg/kg, po administered for 7 days; type: organism-based; conditions: in vivo, 168 h, time 7 day
[20] = tested on: Schistosoma japonicum; experiment: Anti-schistosomal activity against male adult Schistosoma japonicum assessed as appearance of parallel wrinkles at 25 uM measured for 72 hrs by SEM analysis; type: functional, organism-based
[21] = Acute toxicity in ICR mouse assessed as TBIL level at 1144 mg/kg, po administered for 7 days; type: organism-based; conditions: in vivo, 168 h, time 7 day
[22] = tested on: Schistosoma japonicum; experiment: Anti-schistosomal activity against male adult Schistosoma japonicum assessed as surface destabilization at 25 uM measured for 72 hrs by SEM analysis; type: functional, organism-based
[23] = tested on: Schistosoma japonicum; experiment: Anti-schistosomal activity against female adult Schistosoma japonicum assessed as loss of tegumental architecture at 25 uM measured after 72 hrs by SEM analysis; type: functional, organism-based
[24] = tested on: Schistosoma japonicum; experiment: Anti-schistosomal activity against male adult Schistosoma japonicum assessed as complete loss of sucker-associated muscular architecture at 25 uM measured for 72 hrs by SEM analysis; type: functional, organism-based
[25] = Acute toxicity in ICR mouse assessed as ALT level at 1144 mg/kg, po administered for 7 days; type: organism-based; conditions: in vivo, 168 h, time 7 day

SMILES	mortality at 100 µM [3]	mortality at 100 µM [4]	mortality at 100 µM [5]	mortality at 100 µM [6]	IC50 [7]	mortality at 100 µM [10]	mortality at 100 µM [11]	other results
CCOC(=O)/C=C1\S/C(=N\c2ccccc2Cl)N(CCCN2CCN(C)CC2)C1=O	100%	40%	100%	100%	30.4 µM	10%	100%	Activity [1]: 30%; Activity [2]: 7.9 mM; Activity [8]: 37%; Activity [9]: 26%; Activity [12]: 30%
O=C(C1CCCCC1)N1CC(=O)N2CCc3ccccc3C2C1 (stereo not given) [PRAZIQUANTEL]	100%	100%	100%	100%	43.8 µM	100%	100%	Activity [1]: 22%; Activity [2]: 22.1 mM; Activity [13]: Active; Activity [14]: 7.93 mM; Activity [15]: Active; Activity [8]: 7%; Activity [9]: 86%; Activity [16]: Active; Activity [17]: Active; Activity [18]: Active; Activity [19]: 57 U/L; Activity [12]: 49%; Activity [20]: Active; Activity [21]: 3.76 µM; Activity [22]: Active; Activity [23]: Active; Activity [24]: Active; Activity [25]: 136 U/L
CCOC(=O)/C=C1\S/C(=N\c2ccccc2)N(CCN(C)C)C1=O	0%	0%	10%	0%	> 100 µM	0%	0%	–
CCOC(=O)/C=C1\S/C(=N\c2ccccc2)N(CCN2CCCCC2)C1=O	0%	0%	50%	10%	> 100 µM	0%	0%	–
CCOC(=O)/C=C1\S/C(=N\c2ccc(Cl)cc2)N(CCCN2CCN(C)CC2)C1=O	100%	40%	100%	100%	41.8 µM	0%	80%	–
CCOC(=O)/C=C1\S/C(=N\c2ccccc2)N(CCCN(C)C)C1=O	10%	0%	100%	40%	97.7 µM	0%	0%	–
CCOC(=O)/C=C1\S/C(=N\C)N(CCCN2CCN(C)CC2)C1=O	0%	0%	0%	0%	> 100 µM	0%	0%	–
CCOC(=O)/C=C1\S/C(=N\c2ccccc2)N(Cc2ccccc2)C1=O	0%	0%	0%	0%	> 100 µM	0%	0%	–
CCOC(=O)/C=C1\S/C(=N\c2ccccc2)N(CCCN2CCOCC2)C1=O	0%	0%	100%	0%	91.3 µM	0%	0%	–
CCOC(=O)/C=C1\S/C(=N\c2ccc(OC)cc2)N(CCCN2CCN(C)CC2)C1=O	0%	0%	30%	10%	95.7 µM	0%	0%	–
CCOC(=O)/C=C1\S/C(=N\c2ccccc2)N(CCN2CCCC2)C1=O	0%	0%	50%	50%	> 100 µM	0%	0%	–
CCOC(=O)/C=C1\S/C(=N\c2cc(F)ccc2F)N(CCCN2CCN(C)CC2)C1=O	30%	0%	100%	100%	31.2 µM	0%	0%	–
CCOC(=O)/C=C1\S/C(=N\c2cc(C(F)(F)F)cc(C(F)(F)F)c2)N(CCCN2CCN(C)CC2)C1=O	100%	40%	100%	100%	36.4 µM	0%	100%	–
CCOC(=O)/C=C1\S/C(=N\c2cccc(Br)c2)N(CCCN2CCN(C)CC2)C1=O	100%	30%	100%	100%	35.1 µM	0%	80%	–
CCOC(=O)/C=C1\S/C(=N\c2ccccc2Br)N(CCCN2CCN(C)CC2)C1=O	100%	20%	100%	100%	30.9 µM	0%	60%	–
CCOC(=O)/C=C1\S/C(=N\c2ccc(Cl)c(Cl)c2)N(CCCN2CCN(C)CC2)C1=O	100%	40%	100%	100%	39.3 µM	0%	100%	–
